Values of other authors as cited in US20120328537A1, “Topical wound management formulation” (priority 2011, published 2012).

Test system: Strep Mutans
Details: in particular Strep Mutans, the main bacteria responsible for dental caries

In the case of OC[C@@H](O)[C@H](O)[C@@H](O)CO [Xylitol], the growth of bacteria is listed as “inhibit the growth of bacteria”.
